The text below walks through data of patent US7417038B1, “Methods of treating cachexia” (Imperial Innovations Limited, priority 1998, dated 2008).

Each structure is given as a SMILES string. Counter-ions that a name gives are not always drawn.

Series [1] in a line: Treatment of a hypertensive patient with Atenolol (with co-medication): body weight. The class given is in vivo, human. The note with it: baseline 85.6 kg, Atenolol 50 mgs OD with Losartan, Bendrofluazide, Doxazosin, 11 months. As to the method:
A hypertensive patient presented weighing 85.6 kg. They were treated with Losartan 50 mgs OD, Bendrofluazide 2-5 mgs OD, Doxazosin 1 mg OD and Atenolol, a β-blocker, 50 mgs OD. In 11 months their weight increased to 94.3 kg.

The nature of series [2]: Spironolactone treatment of a cachectic CHF patient: symptom limited treadmill exercise testing. The note with it: one cachectic CHF patient, spironolactone 25 mg once daily, follow-up vs baseline. In kind it is in vivo, human. As to the method:
The patient had good compliance in taking spironolactone.
Treadmill exercise testing: The patient underwent symptom limited treadmill exercise testing. A standard Bruce protocol was used. The patient breathed through a one-way valve connected to a commercially available respiratory gas analyser (MedGraphics Inc., USA) and minute ventilation and oxygen consumption were recorded on line every 15 seconds. The patient was encouraged to exercise to exhaustion. Exercise time and oxygen consumption at peak exercise adjusted for total body weight (peak VO2 in ml/kg/min) was measured as an index of the exercise capacity. One day prior to the intended baseline exercise test an additional exercise test was performed to familarise the patient with the test procedure.

Series [3] is described as follows: Spironolactone treatment of a cachectic CHF patient: body weight and clinical status. The settings on record: one cachectic CHF patient, spironolactone 25 mg once daily.
Series [4] is described as follows: Carvedilol treatment of a cachectic CHF patient: symptom limited treadmill exercise testing. The note with it: one cachectic CHF patient, Carvedilol 3.125 mg to 12.5 mg twice daily, follow-up vs baseline. In kind it is in vivo, human.
A short description of series [5]: Carvedilol treatment of a cachectic CHF patient: body weight, body composition (bioelectrical impedance), clinical status. The settings on record: one cachectic CHF patient. In kind it is in vivo, human.
In series [6] the target is T1, human cloned ETA receptors (Homo sapiens, UniProt P25101).
T1 sequence (P25101 21-427): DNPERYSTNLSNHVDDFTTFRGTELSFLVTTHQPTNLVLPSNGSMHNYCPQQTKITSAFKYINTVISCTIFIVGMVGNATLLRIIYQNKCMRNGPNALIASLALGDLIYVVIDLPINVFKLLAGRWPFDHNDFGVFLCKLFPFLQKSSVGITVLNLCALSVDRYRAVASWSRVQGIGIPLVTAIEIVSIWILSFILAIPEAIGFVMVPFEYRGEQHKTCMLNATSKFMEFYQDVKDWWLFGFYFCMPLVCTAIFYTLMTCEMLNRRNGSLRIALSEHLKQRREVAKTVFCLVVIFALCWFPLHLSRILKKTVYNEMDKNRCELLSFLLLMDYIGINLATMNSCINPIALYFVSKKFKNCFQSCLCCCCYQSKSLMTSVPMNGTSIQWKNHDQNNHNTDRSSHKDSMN
The note with it: cited from earlier work.

A further series has as its target T2, ETA receptor (Homo sapiens, UniProt P25101).
T2 sequence (P25101 21-427): T1 sequence (P25101 21-427)
The note with it: cited from earlier work; for selectivity for the ETA receptor versus the ETB receptor: ETA vs ETB.

The mark [7] stands for this setting: without development of any oedema.
Setting [8] is: Carvedilol, without development of oedema.

As to `CC(C)NCC(O)COc1ccc(CC(N)=O)cc1` (centres unmarked) [Atenolol], the “body weight after treatment” value in series [1] stood at 94.3 kg.

Regarding `CC(=O)S[C@@H]1CC2=CC(=O)CC[C@]2(C)[C@H]2CC[C@@]3(C)[C@@H](CC[C@@]34CCC(=O)O4)[C@H]12` [spironolactone], in series [2], the exercise time increase is reported as 53% and the “peak VO2 increase” value is 79%. Moreover, in series [3], the “New York Heart Association functional class (NYHA class) change” value was “class III symptoms to class II symptoms” and the “side effects of the treatment” value is listed as “no side effects”. In addition, in series [3] (setting [7]), the body weight increase stood at 1.5 kg and the “body weight increase (percent)” value is recorded as 2%.

As to `COc1ccccc1OCCNCC(O)COc1cccc2[nH]c3ccccc3c12` (centres unmarked) [Carvedilol], in series [4], the VE/VCO2-slope decrease came to 15.5% and the “peak VO2 increase” value came to 15%. In series [5] (Carvedilol 3.125 mg to 12.5 mg twice daily), the “tolerability of the treatment” value was “tolerated the treatment well”. Besides, the “increase in lean muscle tissue” value in series [5] (Carvedilol 3.125 mg to 12.5 mg twice daily, bioelectrical impedance) was determined as 1.8 kg. In series [5] (setting [8]), the body weight increase was 2.1 kg and the “body weight increase (percent)” value is recorded as 3.1%.

Consider `Cc1ccc(-c2c(NS(=O)(=O)c3ccc(C(C)(C)CO)cc3)ncnc2OCCOc2ncc(Br)cn2)cc1` [T-0201, N-(6-(2-(5-bromopyrimidin-4-yl)-4-(2-hydroxy-1,1-dimethylethyl)-benzensulfonamidesodium salt sesquihydrate], for which, in series [6], the “effect on specific binding of [125I]-ET-1” value is recorded as “competitively antagonized the specific binding”.

Regarding `CCCCN(CCCC)C(=O)CN1C[C@H](c2cc(OC)c3c(c2)OCO3)[C@@H](C(=O)O)[C@@H]1CC(C)(C)CCC` [A-216546], the “selectivity for the ETA receptor versus the ETB receptor” value at ETA receptor is > 25,000 fold.

As for `COc1ccccc1Oc1c(NS(=O)(=O)c2ccc(C)cn2)nc(-c2ccnc(-c3nnn[nH]3)c2)nc1OCCO` [Ro 61-1790, 5-methyl-pyridine-2-sulfonic acid 6-(2-hydroxy-ethoxy)-5-(2-methoxy-phenoxy)-2-(2-1H-tetrazol-5-yl-+++pyridin-4-yl)-pyrimidin-4-ylamide], at ETA receptor, the “selectivity for the ETA receptor versus the ETB receptor” value was “approximately 1000 fold”. For the same molecule, the “affinity to ETA receptor” value on ETA receptor (competitive ET antagonist) is “subnanomolar range”.
